The text below walks through data of US10544154B2, “Opioid receptor antagonist prodrugs” (Nirsum Laboratories, Inc., priority 2017, dated 2020).

A short description of series [1]: Equilibrium solubility in water (Table 10). The conditions noted are these: for solubility thermodynamic: water, 40 °C, thermodynamic from solid.
Series [2] is described as follows: Plasma stability, rat plasma (HPLC-MS). The series is classed as in vitro ADME. Conditions: 10 μM, 37° C. As for the experimental part: (§1) Plasma stability determination of the test compounds in rat, dog, cynomolgus monkey and human plasma is performed using HPLC-MS. For rat, incubations are carried out in 96-well polypropylene plates in 5 aliquots of 70 μL each (one for each time point). […] Five time points are analyzed (0, 15, 120, 480 and 1440 min). For dog, monkey and human, test compounds (2 μM, final solvent concentration 1%) were also incubated at 37° C. and analyzed at five time points (0, 10, 30, 60 and 120 min). All incubations are performed in duplicates. The samples are analyzed by HPLC-MS. The percentage of parent compound remaining after incubation in plasma is determined.

The nature of series [3]: Liver S9 fraction stability, human. The conditions noted are these: 2 μM, 1.0 mg/ml S9 protein, 37° C. The series is classed as in vitro ADME. As to the method: (§2) Liver S9 fraction stability determination of the test compounds in dog, cynomolgus monkey and human is performed using HPLC-MS. Test compound (2 μM, 0.1% DMSO, 1% Methanol final concentration) was assessed for stability in a 50 μl phosphate buffer containing 1.0 mg/ml S9 protein from each of the three species and 5 mM D-saccharic acid-1, 4-lactone. Samples were incubated at 37° C. for 60 minutes and the % compound remaining was assessed.

The nature of series [4]: Plasma stability, cynomolgus monkey plasma (HPLC-MS). The series is classed as in vitro ADME. The conditions noted are these: 2 μM, 37° C. As for the experimental part:
(§3) Plasma stability determination of the test compounds in rat, dog, cynomolgus monkey and human plasma is performed using HPLC-MS. For rat, incubations are carried out in 96-well polypropylene plates in 5 aliquots of 70 μL each (one for each time point). […] Five time points are analyzed (0, 15, 120, 480 and 1440 min). […] All incubations are performed in duplicates. The samples are analyzed by HPLC-MS. The percentage of parent compound remaining after incubation in plasma is determined.

Series [5] is described as follows: Plasma stability, dog plasma (HPLC-MS). It counts as in vitro ADME. The conditions noted are these: 2 μM, 37° C. As to the method: as §1
The nature of series [6]: Liver S9 fraction stability, cynomolgus monkey. The series is classed as in vitro ADME. Conditions: 2 μM, 1.0 mg/ml S9 protein, 37° C. As to the method: as §2
The nature of series [7]: Plasma stability, human plasma (HPLC-MS). The series is classed as in vitro ADME. The conditions noted are these: 2 μM, 37° C. As to the method:
as §3

For series [8] the following is noted: oral dosing; cited from earlier work.
The nature of series [9]: Solubility determination in oil (cottonseed oil, sesame oil), HPLC. Conditions: Heating Temp. 60 °C. As to the method:
A known amount of test substance (˜40 mg) was weighed into the vial, 100 μL of oil was added and heated to 60° C. and then system was slurried to reach equilibrium. […] Then the clear solution was placed at room temperature (25° C.) for 24 h to confirm whether there was solid precipitation. Extra oil was added into the vial once compound precipitated out and then the system was re-equilibrated at 1000 rpm at room temperature (25° C.). Final concentration was determined by HPLC method as described below in Table 6a and 6b.

The nature of series [10]: Polymorph screening of solid state drug substances. It counts as physicochemical. The conditions noted are these: for Dry method and appearance: after stirring at 50 °C for 72 hours; for XRPD results (Dried): dried solid.
Series [11] is described as follows: Rat pharmacokinetic studies, intramuscular administration. It counts as in vivo, male Sprague Dawley Rats. The conditions noted are these: rat IM 0.80 mg/kg, saline. As for the experimental part: The purpose of this study is to determine the pharmacokinetics of test compounds in plasma, following intramuscular administration to male Sprague Dawley Rats (n=3, unless otherwise specified).
The dose formulation of 400 mg base equivalents/ml in sesame oil+1% benzyl alcohol (unless otherwise specified) was administered by intramuscular injection. The dose volume was determined by the animals' body weight determined on the morning of dosing day.
Each collected blood sample was centrifuged for 4 minutes at 4° C. and 10000 rpm for plasma collection. Plasma was collected and transferred into a pre-labeled PP tube in dry ice at each time point and precipitated immediately using ACN at a ratio of 1:4 (plasma:ACN). Centrifuged again (10 minutes, 12000 rpm) and obtain the supernatant.
LC-MS/MS methods for the quantitative determination of test compound in biological matrix were developed. […] The sample analysis was performed concurrently with a set of calibration standards and two sets of QC samples using the LC-MS/MS method.
Plasma concentration versus time data was analyzed by non-compartmental approaches using the Phoenix WinNonlin 6.3 software program. Cmax, Tmax, T1/2, AUC(0-t), AUC(0-inf), MRT(0-t), MRT(0-inf) and graphs of plasma concentration versus time profile were prepared.

Series [12] in a line: Clinical observations for dogs in pharmacokinetic studies. The series is classed as in vivo, Beagle dogs. Conditions: right leg test article. As to the method: Weight monitoring was done every week.
The dose formulation (concentration—400 mg base equivalents/ml in sesame oil+1% benzyl alcohol, unless otherwise specified) was administered via deep intramuscularly (unless otherwise specified). The injection vehicle was also dosed via deep intramuscular route (unless otherwise specified) on contralateral site of each animal at study initiation. The animals were sedated with Propofol at 6 mg/kg via IV administration. Following sedation hair was carefully removed from around the injection site and the area gently cleaned. Care will be taken to avoid irritating skin during shaving and cleaning the injection site. Then dogs will be dosed with deep IM administration. At least 2.5 cm depth from the surface into the central aspect of the quadriceps or biceps femoris muscle, by angling the needle toward the femur. If the needle hits the femur, simply draws back slightly and then inject. The dose volume will be determined by the animals' body weight collected on the morning of dosing day. For repeated administration, the injection sites may be rotated to minimize tissue injury.

≈ marks a conversion by molar mass, not a printed value.

As to `C=C1CC[C@@]2(O)[C@H]3Cc4ccc(O)c5c4[C@@]2(CCN3CC2CC2)[C@H]1O5` [nalmefene, 17-cyclopropylmethyl-4,5α-epoxy-6-methylenemorphinan-3,14-diol], the thermodynamic solubility (as a rule, solubility found after equilibrating the solid with the medium) in series [1] was determined as 0.025 mg/mL (≈ 73.7 µM).
With `C=C1CC[C@@]2(O)C3Cc4ccc(OC(=O)CCCCCCCCCCCCCCC)c5c4[C@@]2(CCN3CC2CC2)[C@H]1O5` [Compound 56, (4aS,7aS,12bS)-3-(cyclopropylmethyl)-4a-hydroxy-7-methylene-2,3,4,4a,5,6,7,7a-octahydro-1H-4,12-methanobenzofuro[3,2-e]isoquinolin-9-yl palmitate, reference compound], the solubility (thermodynamic) in [1] was determined as 0.0066 mg/mL (≈ 11.4 µM). Moreover, the “% remaining at time point in minutes, 0 min” value in [2] stood at 100%.
With `C=C1CC[C@@]2(O)C3Cc4ccc(OC(=O)OCCCCCCCCCCCC)c5c4[C@@]2(CCN3CC2CC2)[C@H]1O5` [Compound 6, (4aS,7aS,12bS)-3-(cyclopropylmethyl)-4a-hydroxy-7-methylene-2,3,4,4a,5,6,7,7a-octahydro-1H-4,12-methanobenzofuro[3,2-e]isoquinolin-9-yl dodecyl carbonate], in series [3], the “Liver S9 Fraction Stability, % remaining at 60 minutes, Human” value was 5.3%. Besides, the “% remaining at time point in minutes, 0 min” value in series [4], in [5], in [7] and in [2] was 100% throughout. In addition, in series [6], the “Liver S9 Fraction Stability, % remaining at 60 minutes, Monkey” value is listed as 0%. For the same compound, the “% remaining at time point in minutes, 120 min” value (shortened to “% remaining … 120 min”) in series [2] is listed as 7.6%. Also, the “% remaining at time point in minutes, 480 min” value (shortened to “% remaining … 480 min”) in [2] was determined as 4%. Also, in series [2], the “% remaining at time point in minutes, 1440 min” value (shortened to “% remaining … 1440 min”) came out at 1.6%.
On to `CCCCCCCCCCCC(=O)OCN1C(=O)CCc2ccc(OCCCCN3CCN(c4cccc(Cl)c4Cl)CC3)cc21` [Aripiprazole Lauroxil, reference compound], for which the “% remaining at time point in minutes, 0 min” value in series [4], in series [5], in [7] and in series [2] was 100% each time. Moreover, the “% remaining … 120 min” value in series [7] (120 min) amounted to 80%. Besides, the “% remaining at time point in minutes, 15 min” value (shortened to “% remaining … 15 min”) in series [2] was 84%. Moreover, in series [2], the “% remaining … 1440 min” value amounted to 46%.
Turning to `Oc1ccc2c3c1O[C@H]1[C@H](O)CC[C@@]4(O)[C@@H](C2)N(CC2CC2)CC[C@]314` [6-β-naltrexol], in series [8], the mean elimination half-life entry is reported as “thirteen”.
As for `CCCCCCCCCCCCCCCC(=O)OC1CCCn2c1nc(C)c(CCN1CCC(c3noc4cc(F)ccc34)CC1)c2=O` (stereo not drawn) [Paliperidone palmitate, reference compound], the “% remaining at time point in minutes, 0 min” value in [4], in series [5] and in series [7] was 100% each time. In addition, the “% remaining … 15 min” value in [4] (15 min) was determined as 92%.
Regarding `C=C1CC[C@@]2(O)C3Cc4ccc(OC(=O)CCCCCCCCCCC)c5c4[C@@]2(CCN3CC2CC2)[C@H]1O5` [Compound 59, (4aS,7aS,12bS)-3-(cyclopropylmethyl)-4a-hydroxy-7-methylene-2,3,4,4a,5,6,7,7a-octahydro-1H-4,12-methanobenzofuro[3,2-e]isoquinolin-9-yl dodecanoate, reference compound], the “Equilibrium solubility Water” value in series [1] (Heating Temp. 40 °C, Obs. Temp. 40 °C) is under 0.001 mg/mL. In series [9] (Obs. Temp. 25 °C), the “Approximate Solubility in Excipient: Cottonseed oil” value is listed as over 414 mg/mL and the “Approximate Solubility in Excipient: Sesame oil” value is given as over 393.3 mg/mL. For the same compound, in series [2], the “% remaining at time point in minutes, 0 min” value came out at 100%; the “% remaining … 15 min” value is reported as 5.9%; the “% remaining … 120 min” value was determined as 0.7%; the “% remaining … 480 min” value is given as 0.2%. The “% remaining … 1440 min” value in series [2] was 0%.
For the compound `CCCCCCCCCCCCCCCCOC(=O)Oc1ccc2c3c1O[C@H]1C(=O)CC[C@@]4(O)C(C2)N(CC2CC2)CC[C@]314` [Compound 21, (4aS,7aR,12bS)-3-(cyclopropylmethyl)-4a-hydroxy-7-oxo-2,3,4,4a,5,6,7,7a-octahydro-1H-4,12-methanobenzofuro[3,2-e]isoquinolin-9-yl hexadecyl carbonate], the “Dry method and appearance” value in series [10] (Acetone), in series [10] (EtOAc), in series [10] (Heptane), in series [10] (Isopropanol) and in series [10] (MTBE) was “Evaporation/white powder” each time. For the same compound, the “XRPD results (Dried)” value in series [10] (Acetone), in [10] (EtOAc), in series [10] (Heptane), in [10] (Isopropanol) and in series [10] (MTBE) was “Pattern A” throughout. Besides, the “Approximate Solubility in Excipient: Cottonseed oil” value in series [9] (Obs. Temp. 40 °C) fell in the range of 101 to 134.8 mg/mL. Besides, the “Approximate Solubility in Excipient: Sesame oil” value in series [9] (Obs. Temp. 40 °C) lay in the range of 101 to 134.5 mg/mL. The “% remaining at time point in minutes, 0 min” value in series [2] is reported as 100%.
Consider `C=C1CC[C@@]2(O)[C@H]3Cc4ccc(O)c5c4[C@@]2(CCN3CC2CC2)[C@H]1O5.Cl` [Nalmefene HCl-IR], for which, in series [11], the “AUC0-inf (ng · h/mL) nalmefene” value worked out at 0.066 µg·h/mL and the “Terminal Half-life t1/2 (hour) nalmefene” value came to 0.87 h.
For the compound `C=C1CC[C@@]2(O)C3Cc4ccc(OC(=O)CCCCCCC/C=C/CCCCCCCC)c5c4[C@@]2(CCN3CC2CC2)[C@H]1O5` [Compound 15, (4aS,7aS,12bS)-3-(cyclopropylmethyl)-4a-hydroxy-7-methylene-2,3,4,4a,5,6,7,7a-octahydro-1H-4,12-methanobenzofuro[3,2-e]isoquinolin-9-yl (E)-octadec-9-enoate], the “% remaining at time point in minutes, 0 min” value in series [4], in series [5], in series [7] and in [2] was 100% throughout. Also, the “Clinical observations, R-TA” value in series [12] (48 mg/kg, Day 35, dogs D1001, D1002, D1003) is recorded as “rashes subside on the leg”; in series [12] (Day 7, dogs D1501, D1502, D1503, dose not given), “Swelling 8 * 4 cm”. Besides, the “% remaining … 1440 min” value in [7] (1440 min) came out at 109.6%; in [2], 35%. Also, the “% remaining … 15 min” value in [2] was 72%. For the same compound, the “% remaining … 480 min” value in [2] worked out at 52%.
